Measured values: patent US8691528B2, “Cell penetrating peptide” (Mitsubishi Tanabe Pharma Corporation, priority 2005, dated 2014)
Entries after “also recorded” stand apart in the source; their conditions may differ.

Tested on: CHO cells
Assay: Test of translocation of fluorescence-labeled peptides into CHO cells (FACS and confocal microscopic analysis)
Assay type: cell-based
Conditions: for contribution of the alanine-substituted amino acid to the intracellular translocation: comprehensive alanine substitution on the basis of KSH1-1
Experimental: Each peptide solution, adjusted to 1 mM, was diluted with a medium to three levels, 100 μM, 50 μM, and 25 μM, and added to cells. Three kinds of cells were used: CHO cells, HeLa cells, and Jurkat cells. After each peptide solution was added, the cells were incubated for 1 hour. After the cells were washed with PBS three times, 100 μL of 0.25% trypsin-1 mM EDTA solution was added, and trypsinization was performed at room temperature for 5 minutes. After 400 μL of PBS (10% FCS) was added to stop the trypsinization, the cells were washed with 1 mL of HBSS three times. After the washing, the cells were suspended in 500 μL of PBS (10% FCS) and subjected to flowcytometry (hereinafter, FACS) analysis using FACS Calibur (Becton Dickinson).
Each peptide was synthesized, fluorescently labeled, purified and dissolved in the same manner as Example 1-2, a test of translocation into CHO cells was performed, and an evaluation was performed by confocal microscopic analysis and FACS. FACS analysis was performed in the same manner as Example 1-3. For the KSH1 peptide and modified PTD sequences, i.e., KSH1-1 to KSH1-9 peptides (SEQ ID NOS:1 to 9 in the sequence listing), fluorescence intensities determined by FACS analysis are shown in FIG. 6. The peptide addition concentrations were 50 μM, 25 μM, 12.5 μM and 6.5 μM.
To determine which amino acids are important to the intracellular translocation, comprehensive alanine substitution was performed on the basis of KSH1-1 to design KSH1-11 (SEQ ID NO:11 in the sequence listing) to KSH1-23 (SEQ ID NO:22 in the sequence listing) and KSH1-35 (SEQ ID NO:32 in the sequence listing) (FIG. 7). Each peptide was synthesized, fluorescently labeled, purified and dissolved in the same manner as Example 1-2, a test of translocation into CHO cells was performed, and an evaluation was performed by confocal microscopic analysis and FACS. FACS analysis was performed in the same manner as Example 1-3. For KSH1 and modified PTD sequences, i.e., KSH11-11 to 23 and KSH1-35, fluorescence intensities determined by FACS analysis are shown in FIG. 8. The peptide addition concentrations were 50 μM, 25 μM, 12.5 μM and 6.5 μM.
(§1) Each peptide was synthesized, fluorescently labeled, purified and dissolved in the same manner as Example 1-2, a test of translocation into CHO cells was performed, and an evaluation was performed by confocal microscopic analysis and FACS analysis. FACS analysis was performed in the same manner as Example 1-3. For KSH1 and modified PTD sequences, i.e., KSH11-24 to 1-26 and KSH1-28 to 1-30, fluorescence intensities determined by FACS analysis are shown in FIG. 10. The peptide addition concentrations were 50 μM, 25 μM, 12.5 μM and 6.5 μM.
as §1, with “KSH1-27, KSH1-33, KSH1-34” for “KSH11-24 to 1-26”, “KSH1-36,” for “KSH1-28 to 1-30,”, “12.” for “10.”
Each peptide was synthesized, fluorescently labeled, purified and dissolved in the same manner as Example 1-2, and an intracellular translocation test in CHO cells was performed by FACS analysis. Used for positive control were a PTD sequence derived from HIV TAT ([…] in the sequence listing) and the KSH1 peptide; used for negative control was a peptide sequence lacking intracellular transferability (SEQ ID NO:57 in the sequence listing).

[1] = 50 μM, 25 μM, 12.5 μM and 6.5 μM

KSH1-30: two tryptophans substituted with tyrosine (RLYMRYYSPTTRRYG; Designed peptide to act as PTD(Protein Transduction Domain))
intracellular translocation compared with KSH1-1 (in words) [1]: good intracellular translocation was exhibited; also recorded: good results

KSH1-6: KSH1 with the two tryptophans both substituted with alanine (KLAMRAYSPTTRRYG; Designed peptide to act as PTD(Protein Transduction Domain))
intracellular translocation compared with KSH1 (in words) [1]: no longer observable at all

KSH1-25: two tryptophans substituted with phenylalanine (RLFMRFYSPTTRRYG; Designed peptide to act as PTD(Protein Transduction Domain))
intracellular translocation compared with KSH1-1 (in words) [1]: nearly the same as KSH1-1

KSH1-27: serine and threonine all substituted with alanine (RLWMRWYAPAARRYG; Designed peptide to act as PTD(Protein Transduction Domain))
intracellular translocation compared with KSH1-1 (in words) [1]: decreased slightly | translocation compared with KSH1-1 (in words) (at low concentrations): nearly the same

KSH1-34: 14th tyrosine in the vicinity of the 3rd tryptophan substituted with arginine (RLWMRWYSPTTRARG; Designed peptide to act as PTD(Protein Transduction Domain))
intracellular translocation compared with KSH1-1 (in words) [1]: decreased considerably

KSH1-2: KSH1 with proline substituted with alanine (KLWMRWYSATTRRYG; Designed peptide to act as PTD(Protein Transduction Domain))
intracellular translocation compared with KSH1 (in words) [1]: no influence on the intracellular transferability was observed

KSH1-15: alanine substitution form of KSH1-1 (an arginine substituted) (RLWMAWYSPTTRRYG; Designed peptide to act as PTD(Protein Transduction Domain))
intracellular translocation compared with KSH1-1 (in words) [1]: decreased

KSH1-19: alanine substitution form of KSH1-1 (RLWMRWYSGTTRRYG; Designed peptide to act as PTD(Protein Transduction Domain))
contribution of the alanine-substituted amino acid to the intracellular translocation: minor contribution

KSH1-23: alanine substitution form of KSH1-1 (RLWMRWYSPTTRRAG; Designed peptide to act as PTD(Protein Transduction Domain))
contribution of the alanine-substituted amino acid to the intracellular translocation: minor contribution

KSH1-3: KSH1 with the 13th arginine substituted with alanine (KLWMRWYSPTTRAYG; Designed peptide to act as PTD(Protein Transduction Domain))
intracellular translocation compared with KSH1 (in words) [1]: decreased remarkably; also recorded: became observable very little | concentration at which intracellular translocation was detected (detected only at this concentration): 50 µM

KSH1-36: the reversed-chain peptide of KSH1 (GYRRTTPSYWRMWLR; Designed peptide to act as PTD(Protein Transduction Domain))
intracellular translocation compared with KSH1 (in words) (at high concentrations): accentuated intracellular translocation | intracellular translocation compared with KSH1 (in words) (at low concentrations): tended to decrease

KSH1-11: KSH1-1 with the 1st arginine substituted with alanine (ALWMRWYSPTTRRYG; Designed peptide to act as PTD(Protein Transduction Domain))
intracellular translocation compared with KSH1-1 (in words) [1]: did not decrease a lot | contribution of the alanine-substituted amino acid to the intracellular translocation: minor contribution

KSH1-35: alanine substitution form of KSH1-1 (RLWMRWYSPTTRRYA; Designed peptide to act as PTD(Protein Transduction Domain))
contribution of the alanine-substituted amino acid to the intracellular translocation: minor contribution

KSH1-22: alanine substitution form of KSH1-1 (an arginine substituted) (RLWMRWYSPTTARYG; Designed peptide to act as PTD(Protein Transduction Domain))
intracellular translocation compared with KSH1-1 (in words) [1]: decreased

KSH1-24: two tryptophans substituted with leucine (RLLMRLYSPTTRRYG; Designed peptide to act as PTD(Protein Transduction Domain))
intracellular translocation compared with KSH1-1 (in words) [1]: decreased

KSH1-17: KSH1-1 with the 7th tyrosine substituted with alanine (RLWMRWASPTTRRYG; Designed peptide to act as PTD(Protein Transduction Domain))
intracellular translocation compared with KSH1-1 (in words) [1]: almost no intracellular translocation was observed

KSH1-4: modified KSH1 with three tryptophans uniformly arranged on the wheel structure (KLWMRWWSPTTRRYG; Designed peptide to act as PTD(Protein Transduction Domain))
intracellular translocation compared with KSH1 (in words) [1]: did not change

KSH1-29: two tryptophans substituted with valine (RLVMRVYSPTTRRYG; Designed peptide to act as PTD(Protein Transduction Domain))
intracellular translocation compared with KSH1-1 (in words) [1]: decreased slightly

KSH1-26: two tryptophans substituted with isoleucine (RLIMRIYSPTTRRYG; Designed peptide to act as PTD(Protein Transduction Domain))
intracellular translocation compared with KSH1-1 (in words) [1]: nearly the same as KSH1-1
